# Measurements taken from patent publication US20100069343A1, “Methods of predicting steroid responsiveness with Il-1RII” (priority 2008, published 2010).
# Values joined by “and” are separate entries in the source; they are usually repeats but may differ in a detail not shown here. Equal values may be shown once.
# Tests used:
# [1] = compared to placebo; cited from earlier work
# IL-1RA, IL-1β = details: experimentally; cited from earlier work
# patients with AIED = assay: Prednisone treatment of AIED patients with sudden hearing decline, pre/post-treatment audiograms; type: in vivo, human; details: for AVG Improve: 60 mg prednisone daily 7 days then taper
# Method: FIG. 5A. 10 patients with presumptive AIED and sudden declines in hearing were enrolled, blood samples were taken and then the patients were treated with 60 mg prednisone/day×7 days and then tapered. Post-treatment audiograms were obtained between 7-14 days later. Improvement (Δ) was measured as the average of 500, 1, 2, 4 & 8 kHz. […] The patient that improved 13.3 dB represented a patient that returned to normal hearing thresholds. PBMC were isolated, divided and cultured for 16 hours with either 0 μg/ml or increasing concentrations of dexamethasone (8, 20, 40 or 80 μg/ml). Fold changes in levels of mIL-1RII by Q-RT-PCR after in vitro challenge with dexamethasone (expressed as fold change over baseline) predicted steroid responsiveness in AIED. In data on 7 subjects, the fold-increase was log-transformed in order to better meet the assumptions of a normal distribution with equal variance.
# Prospectively Enrolled, Steroid Treated Subjects. Ten patients with AIED who had not undergone cochlear implantation were studied in a separate IRB approved protocol. […] The responders were defined as a 10 dB or greater average improvement at 250, 500, 1000, 2000, 4000 and 8000 Hz. […] Furthermore, SNHL of greater than 30 dB at one or more frequencies in both ears with evidence of active deterioration (elevated threshold) in at least one ear of 15 dB at one frequency (excluding 250 or 8 kHz as a sole indicator), or 10 dB at 2+ frequencies developing in >3 days but <90 days (Niparko et al. 2005, Yeom et al. 2003). If the hearing loss evolved in less than 3 days, prior similar hearing declines must have occurred or the patient must have a systemic autoimmune disorder AND the patient must meet the audiology criteria outlined above. All patients with retrocochlear (vestibular schwannoma or other internal auditory canal s) pathology), patients who received prednisone or other immunosuppressive therapy within 3 months, or patients with vestibular symptoms coinciding with periods of hearing fluctuation were all excluded from this study. All patients received a minimum of 60 mg of prednisone daily for 7 days with a variable taper thereafter.
# 60% of patients studied by the AIED study group were steroid responsive (Niparko et al. 2005). In the present study, in vitro PBMC membrane-bound IL-IRII (mIL-1RII) mRNA expression in response to dexamethasone stimulation was compared to basal mIL-1RII expression in cultures of PBMCs collected prior to clinical steroid treatment. In addition, pre-treatment mIL-1RII expression was compared to post-treatment hearing recovery. Furthermore, pre- and post-treatment mIL-1RII expression were compared in a subset of clinical responders and non-responders. […] All responders returned to their prior baseline hearing thresholds at the end of the corticosteroid treatment. Non-responders were defined as less than 5 dB improvement at the same frequencies or further decline of pure tone thresholds. […] Of note, the dramatic difference in fold change of the corticosteroid responders is inversely proportional to basal mIL-1RII expression in PBMC (45 cycles, S.D. 0.0 in replicate samples) in an unstimulated condition, compared to corticosteroid non-responders (28.48 cycles, S.D.±3.34) (FIG. 5B, p<0.0001). In all patient samples, the unstimulated condition is the average of 2 independent cultured PBMC samples. Furthermore, post-steroid therapy mIL-1RII expression was determined in a subset of patients.
# mIL-1RII = assay: Pre- and post-steroid therapy mIL-1RII expression in PBMC by Q-RT-PCR; type: in vivo, human; details: subset
# Method: FIG. 5B. Pre- and post-treatment mIL-1RII levels in a subset of clinical responders and non-responders. Responders have essentially zero basal mIL-1RII expression, compared with non-responders that have substantially higher basal levels.
# Q-RT-PCR. Quantitative Real Time RT-PCR (Q-RT-PCR) was performed on PBMC from patients using TaqMan chemistry. The relative abundance of IL1R2 mRNA for 2 membrane bound (mIL-1RII) and the soluble (sIL-1RII) coding regions associated with the 2 Affymetrix probes sets 211372 (sIL-1RII) and 205403 (mIL-1RID compared to β-actin was determined using the Eurogentec RTqPCR mastermix (Eurogentec, Belgium) and ABI PRISM 7700 Sequence Detection System. Membrane bound IL-1RII, as reflected by Affymetrix probe set 205403 was detected by primers nt 1239-1258, 1295-1314, and taqman probe 1271-1278, whereas the shorter soluble form (sIL-1RII) reflected by the Affymetrix probe 211372 and primers nt 790-830-849, and taqman probe 820-827. […] Data was analyzed using Sequence Detection System software version 1.9.1. Results were expressed as Ct (Threshold cycle) values, which is inversely proportional to the starting template copy number. Relative abundance of IL1R2 in […] cells was calculated compared to untreated control samples using delta delta Ct method (User Bulletin #2, Applied Biosystems Inc). […]
# TNF-α = details: animal studies, inner ear; cited from earlier work
compound,measurement,setting,value
CN(Cc1cnc2nc(N)nc(N)c2n1)c1ccc(C(=O)N[C@@H](CCC(=O)O)C(=O)O)cc1 [methotrexate],maintenance of hearing,[1],could not maintain hearing
same,IL-1RA release,"IL-1RA, IL-1β",stimulates IL-1RA release
same,IL-1β synthesis,"IL-1RA, IL-1β",inhibits IL-1β synthesis
C[C@]12C=CC(=O)C=C1CC[C@@H]1[C@@H]2C(=O)C[C@@]2(C)[C@H]1CC[C@]2(O)C(=O)CO [prednisone],hearing outcome of responders,"patients with AIED; Responders (R), post-treatment audiograms 7-14 days later",returned to prior baseline hearing
same,AVG Improve,patients with AIED; patient 39WM (R3),13.3 dB and 13 dB
same,AVG Improve,patients with AIED; patient 42 (NR2),0 dB
same,AVG Improve,"patients with AIED; patient 45WM (NR 5), (NS)",1 dB
same,AVG Improve,patients with AIED; patient 54 (R2),33 dB
same,AVG Improve,patients with AIED; patient 56 (R1),38 dB
same,AVG Improve,patients with AIED; patient 56WM (NR1),0 dB
same,AVG Improve,patients with AIED; patient 57 (NR4),0 dB
same,AVG Improve,"patients with AIED; patient 60WF (NR7), (NS)",4 dB
same,AVG Improve,patients with AIED; patient 61HF (NR3),0 dB
same,AVG Improve,patients with AIED; patient 62 (NR6),0dB
same,mIL-1RII expression detected post-treatment,"mIL-1RII; clinical non-responders, pre-treatment 30 cycles",27 cycles
same,mIL-1RII expression detected post-treatment,"mIL-1RII; clinical responders, pre-treatment no expression at 45 cycles",30 cycles
Etanercept,TNF-α release after administration of antigen,TNF-α,can be reversed
